Like-named read-outs stand apart in the source and are kept apart here.
Experiments:
Type in all cases: in vivo, Brassica napus
Bn WT 2 = experiment: Field trial crop phytotoxicity, Simcoe; settings: 18 Days After Treatment, line Bn WT 2; for Mean Percent Crop Phytotoxicity (% Crop Injury): field, 2-4 leaf stage
Text: (§1) Hand-crossed hybrids were produced in the greenhouse between two IMI-tolerant spring Brassica napus parental lines: “BnCL131A1” (homozygous for the A genome IMI-tolerant mutation AHASL1A-A122(At)T-S653(At)N) and “PM1PM2” (homozygous for the A genome AHAS-inhibitor tolerant mutation AHASL1A-W574(At)L (PM2) plus the C genome AHAS-inhibitor tolerant mutation AHASL1C-S653(At)N(PM1)). The resulting heterozygous hand-crossed hybrid line, “PM1PM2/BnCL131A 1” (heterozygous for the stacked mutations: AHASL1A-A122(At)T-S653(At)N, AHASL1A-W574(At)L (PM2), AHASL1C-S653(At)N(PM1)) was field tested together with lines each containing only one AHAS-inhibitor tolerant mutation (homozygous or heterozygous) and several spring Brassica napus checks.
(§2) The three repetition trial was conducted in Simcoe, N. Dak., and used a randomized split block design. The trial was designed to measure the percent phytotoxicity (% crop injury) of the different entries under 5 different imidazolinone herbicide treatment rates. Plants were sprayed at the 2-4 leaf stage at a volume of 100 liters/ha. The imidazolinone herbicide rates used were as follows (Imazamox=BEYOND™ 120 g/I LC (BAS 72001H); NIS=INDUCE™ 90 (90% non-ionic surfactant; Helena Chemical Co., Collierville, Tenn.):
(§3) Crop Injury Ratings were determined in the field by assessing each plot in the trial for the level of phytotoxicity (percent crop injury) on a scale from 0-100% at 18 days after treatment. Mean values for each entry across the three replications along with their statistical significance (ANOVA) are presented in Table 6 (Ho=homozygous; He=heterozygous). Each value presented in Table 6 is the mean of three replications.
(§4) The percent phytotoxicity (% crop injury) ratings were transposed into Herbicide Tolerance ratings by subtracting the percent crop injury rating (Table 6) for each line from 100% to obtain the percent herbicide tolerance (Table 7) (Ho=homozygous; He=heterozygous).

[1] = system: PM1 (AHASL1C-PM1), S653N (Ho); experiment: Field trial crop phytotoxicity, Simcoe; settings: 18 Days After Treatment, line PM1 (AHASL1C-PM1); for Mean Percent Crop Phytotoxicity (% Crop Injury): field, 2-4 leaf stage
Text: as §1, §2, §3, §4

[2] = system: AHASL1A-A122T, A122T (Ho); settings: 18 Days After Treatment, line AHASL1A-A122T; for Mean Percent Crop Phytotoxicity (% Crop Injury): field, 2-4 leaf stage
Text: as §1, §2, §3, §4

[3] = system: AHASL1A-S653N, S653N (Ho); settings: 18 Days After Treatment, line AHASL1A-S653N; for Mean Percent Crop Phytotoxicity (% Crop Injury): field, 2-4 leaf stage
Text: as §1, §2, §3, §4

[4] = system: BnCL131A1 (He), A122T-S653N (He); settings: 18 Days After Treatment, line BnCL131A1 (He); for Mean Percent Crop Phytotoxicity (% Crop Injury): field, 2-4 leaf stage
Text: as §1, §2, §3, §4

[5] = system: PM2 (AHASL1A-PM2), W574L (Ho); settings: 18 Days After Treatment, line PM2 (AHASL1A-PM2); for Mean Percent Crop Phytotoxicity (% Crop Injury): field, 2-4 leaf stage
Text: as §1, §2, §3, §4

[6] = system: BnCL131A1 (Ho), A122T-S653N (Ho); settings: 18 Days After Treatment, line BnCL131A1 (Ho); for Mean Percent Crop Phytotoxicity (% Crop Injury): field, 2-4 leaf stage
Text: as §1, §2, §3, §4

[7] = system: PM1PM2/BnCL131A1, S653N (He), W574L (He)/A122T-S653N (He); settings: for Mean Percent Crop Phytotoxicity (% Crop Injury): field, 2-4 leaf stage; for Expected Additive % Herbicide Tolerance: sum of BnCL131A1 (He) + PM2 (AHASL1A-PM2) + PM1 (AHASL1C-PM1)
Text: as §1, §2, §3, §4

[8] = mean over 0, 35, 70, 140, 210 g ai/ha (N 15)

For `COCc1cnc(C2=NC(C)(C(C)C)C(=O)N2)c(C(=O)O)c1` (centres unmarked) [imazamox], the “Mean Percent Crop Phytotoxicity (% Crop Injury)” value (Bn WT 2; 35 g ai/ha + 0.25% (v/v) NIS) was 95%, the “Mean Percent Herbicide Tolerance (100% minus percent crop injury)” value (Bn WT 2; 35 g ai/ha) was 5.0% and the “Mean Percent Crop Phytotoxicity (% Crop Injury)” value (Bn WT 2; 70 g ai/ha + 0.25% (v/v) NIS) was 100%. The “Mean Percent Herbicide Tolerance (100% minus percent crop injury)” value (Bn WT 2; 70 g ai/ha) was 0.0%, the “Mean Percent Crop Phytotoxicity (% Crop Injury)” value (Bn WT 2; 140 g ai/ha + 0.25% (v/v) NIS) was 100% and the “Mean Percent Herbicide Tolerance (100% minus percent crop injury)” value (Bn WT 2; 140 g ai/ha) was 0.0%. For the same compound, the “Mean Percent Crop Phytotoxicity (% Crop Injury)” value (Bn WT 2; 210 g ai/ha + 0.25% (v/v) NIS) was 100%, the “Mean Percent Herbicide Tolerance (100% minus percent crop injury)” value (Bn WT 2; 210 g ai/ha) was 0.0% and the “Mean Percent Crop Phytotoxicity (% Crop Injury), Mean over rates” value (Bn WT 2; [8]) was 79%. For the same compound, the “Mean Percent Crop Phytotoxicity (% Crop Injury)” value ([1]; 35 g ai/ha + 0.25% (v/v) NIS) was 66.67%, the “Mean Percent Herbicide Tolerance (100% minus percent crop injury)” value ([1]; 35 g ai/ha) was 33.3% and the “Mean Percent Crop Phytotoxicity (% Crop Injury)” value ([1]; 70 g ai/ha + 0.25% (v/v) NIS) was 86.67%. For the same compound, the “Mean Percent Herbicide Tolerance (100% minus percent crop injury)” value ([1]; 70 g ai/ha) was 13.3%, the “Mean Percent Crop Phytotoxicity (% Crop Injury)” value ([1]; 140 g ai/ha + 0.25% (v/v) NIS) was 91.67% and the “Mean Percent Herbicide Tolerance (100% minus percent crop injury)” value ([1]; 140 g ai/ha) was 8.3%. The “Mean Percent Crop Phytotoxicity (% Crop Injury)” value ([1]; 210 g ai/ha + 0.25% (v/v) NIS) was 91.67%, the “Mean Percent Herbicide Tolerance (100% minus percent crop injury)” value ([1]; 210 g ai/ha) was 8.3% and the “Mean Percent Crop Phytotoxicity (% Crop Injury), Mean over rates” value [1, 8] was 67.33%. For the same compound, the “Mean Percent Crop Phytotoxicity (% Crop Injury)” value ([2]; 35 g ai/ha + 0.25% (v/v) NIS) was 70%, the “Mean Percent Herbicide Tolerance (100% minus percent crop injury)” value ([2]; 35 g ai/ha) was 30.0% and the “Mean Percent Crop Phytotoxicity (% Crop Injury)” value ([2]; 70 g ai/ha + 0.25% (v/v) NIS) was 78.33%. For the same compound, the “Mean Percent Herbicide Tolerance (100% minus percent crop injury)” value ([2]; 70 g ai/ha) was 21.7%, the “Mean Percent Crop Phytotoxicity (% Crop Injury)” value ([2]; 210 g ai/ha + 0.25% (v/v) NIS) was 70% and the “Mean Percent Herbicide Tolerance (100% minus percent crop injury)” value ([2]; 210 g ai/ha) was 30.0%. For the same compound, the “Mean Percent Crop Phytotoxicity (% Crop Injury), Mean over rates” value [2, 8] was 57%, the “Mean Percent Crop Phytotoxicity (% Crop Injury)” value ([3]; 70 g ai/ha + 0.25% (v/v) NIS) was 78.33% and the “Mean Percent Herbicide Tolerance (100% minus percent crop injury)” value ([3]; 70 g ai/ha) was 21.7%. For the same compound, the “Mean Percent Crop Phytotoxicity (% Crop Injury)” value ([3]; 210 g ai/ha + 0.25% (v/v) NIS) was 90%, the “Mean Percent Herbicide Tolerance (100% minus percent crop injury)” value ([3]; 210 g ai/ha) was 10.0% and the “Mean Percent Crop Phytotoxicity (% Crop Injury), Mean over rates” value [3, 8] was 64.33%. The “Mean Percent Crop Phytotoxicity (% Crop Injury)” value ([4]; 35 g ai/ha + 0.25% (v/v) NIS) was 33.33%, the “Mean Percent Herbicide Tolerance (100% minus percent crop injury)” value ([4]; 35 g ai/ha) was 66.7% and the “Mean Percent Crop Phytotoxicity (% Crop Injury)” value ([4]; 70 g ai/ha + 0.25% (v/v) NIS) was 60%. The “Mean Percent Herbicide Tolerance (100% minus percent crop injury)” value ([4]; 70 g ai/ha) was 40.0%, the “Mean Percent Crop Phytotoxicity (% Crop Injury)” value ([4]; 140 g ai/ha + 0.25% (v/v) NIS) was 80% and the “Mean Percent Herbicide Tolerance (100% minus percent crop injury)” value ([4]; 140 g ai/ha) was 20.0%. For the same compound, the “Mean Percent Crop Phytotoxicity (% Crop Injury)” value ([4]; 210 g ai/ha + 0.25% (v/v) NIS) was 73.33%, the “Mean Percent Herbicide Tolerance (100% minus percent crop injury)” value ([4]; 210 g ai/ha) was 26.7% and the “Mean Percent Crop Phytotoxicity (% Crop Injury), Mean over rates” value [4, 8] was 49.33%. The “Mean Percent Crop Phytotoxicity (% Crop Injury)” value ([5]; 35 g ai/ha + 0.25% (v/v) NIS) was 36.67%, the “Mean Percent Herbicide Tolerance (100% minus percent crop injury)” value ([5]; 35 g ai/ha) was 63.3% and the “Mean Percent Crop Phytotoxicity (% Crop Injury)” value ([5]; 70 g ai/ha + 0.25% (v/v) NIS) was 46.67%. The “Mean Percent Herbicide Tolerance (100% minus percent crop injury)” value ([5]; 70 g ai/ha) was 53.3%, the “Mean Percent Crop Phytotoxicity (% Crop Injury)” value ([5]; 140 g ai/ha + 0.25% (v/v) NIS) was 83.33% and the “Mean Percent Herbicide Tolerance (100% minus percent crop injury)” value ([5]; 140 g ai/ha) was 16.7%. The “Mean Percent Crop Phytotoxicity (% Crop Injury)” value ([5]; 210 g ai/ha + 0.25% (v/v) NIS) was 80%, the “Mean Percent Herbicide Tolerance (100% minus percent crop injury)” value ([5]; 210 g ai/ha) was 20.0% and the “Mean Percent Crop Phytotoxicity (% Crop Injury), Mean over rates” value [5, 8] was 49.33%. The “Mean Percent Crop Phytotoxicity (% Crop Injury)” value ([6]; 35 g ai/ha + 0.25% (v/v) NIS) was 16.67%, the “Mean Percent Herbicide Tolerance (100% minus percent crop injury)” value ([6]; 35 g ai/ha) was 83.3% and the “Mean Percent Crop Phytotoxicity (% Crop Injury)” value ([6]; 70 g ai/ha + 0.25% (v/v) NIS) was 31.67%. For the same compound, the “Mean Percent Herbicide Tolerance (100% minus percent crop injury)” value ([6]; 70 g ai/ha) was 68.3%, the “Mean Percent Crop Phytotoxicity (% Crop Injury)” value ([6]; 140 g ai/ha + 0.25% (v/v) NIS) was 43.33% and the “Mean Percent Herbicide Tolerance (100% minus percent crop injury)” value ([6]; 140 g ai/ha) was 56.7%. The “Mean Percent Crop Phytotoxicity (% Crop Injury)” value ([6]; 210 g ai/ha + 0.25% (v/v) NIS) was 55%, the “Mean Percent Herbicide Tolerance (100% minus percent crop injury)” value ([6]; 210 g ai/ha) was 45.0% and the “Mean Percent Crop Phytotoxicity (% Crop Injury), Mean over rates” value [6, 8] was 29.33%. The “Mean Percent Crop Phytotoxicity (% Crop Injury)” value ([7]; 35 g ai/ha + 0.25% (v/v) NIS, 18 Days After Treatment, line PM1PM2/BnCL131A1) was 8.33%, the “Mean Percent Herbicide Tolerance (100% minus percent crop injury)” value ([7]; 35 g ai/ha, 18 Days After Treatment, line PM1PM2/BnCL131A1) was 91.7% and the “Mean Percent Crop Phytotoxicity (% Crop Injury)” value ([7]; 70 g ai/ha + 0.25% (v/v) NIS, 18 Days After Treatment, line PM1PM2/BnCL131A1) was 15%. The “Mean Percent Herbicide Tolerance (100% minus percent crop injury)” value ([7]; 70 g ai/ha, 18 Days After Treatment, line PM1PM2/BnCL131A1) was 85.0%, the “Mean Percent Crop Phytotoxicity (% Crop Injury)” value ([7]; 140 g ai/ha + 0.25% (v/v) NIS, 18 Days After Treatment, line PM1PM2/BnCL131A1) was 21.67% and the “Mean Percent Herbicide Tolerance (100% minus percent crop injury)” value ([7]; 140 g ai/ha, 18 Days After Treatment, line PM1PM2/BnCL131A1) was 78.3%. For the same compound, the “Expected Additive % Herbicide Tolerance” value ([7]; 140 g ai/ha) was 45%, the “Expected Additive % Herbicide Tolerance” value ([7]; 140 g ai/ha, listed as Beyond) was 45.0% and the “Mean Percent Crop Phytotoxicity (% Crop Injury)” value ([7]; 210 g ai/ha + 0.25% (v/v) NIS, 18 Days After Treatment, line PM1PM2/BnCL131A1) was 15%. The “Mean Percent Herbicide Tolerance (100% minus percent crop injury)” value ([7]; 210 g ai/ha, 18 Days After Treatment, line PM1PM2/BnCL131A1) was 85%, the “Mean Percent Herbicide Tolerance (100% minus percent crop injury)” value ([7]; 210 g ai/ha, 18 Days After Treatment, line PM1PM2/BnCL131A1, listed as Beyond) was 85.0% and the “Expected Additive % Herbicide Tolerance” value ([7]; 210 g ai/ha) was 55%. The “Expected Additive % Herbicide Tolerance” value ([7]; 210 g ai/ha, listed as Beyond) was 55.0% and the “Mean Percent Crop Phytotoxicity (% Crop Injury), Mean over rates” value ([7]; mean over 0, 35, 70, 140, 210 g ai/ha (N 15), 18 Days After Treatment, line PM1PM2/BnCL131A1) was 12%.

From patent US20120060243A1, “Herbicide-Resistant AHAS-Mutants and Methods of Use” (priority 2008, published 2012)
